Results published in ChEMBL document CHEMBL4043268 (Bioorg Med Chem, 2017).
Active and inactive are the calls of the source. No cut-off for these calls is given here.

Tests used:
[1] = target: T1, Acetylcholinesterase (Homo sapiens, UniProt P22303)
Description: Inhibition of human erythrocyte AChE using acetylthiocholine iodide as substrate preincubated for 10 mins followed by substrate addition by Ellman's method

[2] = target: T1, Acetylcholinesterase; experiment: Inhibition of human erythrocyte AChE at 20 uM using acetylthiocholine iodide as substrate preincubated for 10 mins followed by substrate addition Ellman's method
[3] = target: T2, Cholinesterase (Equus caballus, UniProt P81908)
Description: Inhibition of equine serum BChE using butyrylthiocholine iodide as substrate preincubated for 10 mins followed by substrate addition by Ellman's method

[4] = target: T3, Liver carboxylesterase (Sus scrofa, UniProt Q29550)
T3 sequence (Q29550 whole entry): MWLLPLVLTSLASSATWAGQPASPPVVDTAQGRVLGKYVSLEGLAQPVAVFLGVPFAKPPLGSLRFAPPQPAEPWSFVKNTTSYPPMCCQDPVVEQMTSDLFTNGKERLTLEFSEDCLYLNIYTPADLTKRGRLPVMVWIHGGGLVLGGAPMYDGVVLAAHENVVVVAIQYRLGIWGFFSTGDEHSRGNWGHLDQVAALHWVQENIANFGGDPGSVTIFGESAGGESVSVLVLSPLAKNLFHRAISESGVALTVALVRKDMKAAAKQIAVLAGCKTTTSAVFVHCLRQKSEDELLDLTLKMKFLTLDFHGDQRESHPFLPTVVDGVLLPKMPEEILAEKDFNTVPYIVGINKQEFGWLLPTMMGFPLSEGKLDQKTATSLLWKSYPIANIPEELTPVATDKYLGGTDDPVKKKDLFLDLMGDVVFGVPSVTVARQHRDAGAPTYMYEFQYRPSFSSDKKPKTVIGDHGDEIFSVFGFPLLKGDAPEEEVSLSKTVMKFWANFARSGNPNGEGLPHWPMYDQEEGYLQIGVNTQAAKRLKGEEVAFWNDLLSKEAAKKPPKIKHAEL
Description: Inhibition of pig liver carboxylesterase using 4-nitrophenol acetate as substrate by spectrophotometric analysis

[5] = target: T3, Liver carboxylesterase; experiment: in vitro; settings: pig, probe 4-nitrophenol acetate
Description: Inhibition of pig liver carboxylesterase at 20 uM using 4-nitrophenol acetate as substrate by spectrophotometric analysis

[6] = target: T2, Cholinesterase; remark: listed apart in the source
Description: Competitive inhibition of equine serum BChE using butyrylthiocholine iodide as substrate preincubated for 10 mins followed by substrate addition by Lineweaver-Burk double reciprocal kinetic plot analysis

[7] = target: Cholinesterase (Equus caballus) (UniProt P81908); experiment: Non-competitive inhibition of equine serum BChE using butyrylthiocholine iodide as substrate preincubated for 10 mins followed by substrate addition by Lineweaver-Burk double reciprocal kinetic plot analysis
[8] = target: T1, Acetylcholinesterase; experiment: Non-competitive inhibition of human […] AChE using acetylthiocholine iodide as substrate preincubated for 10 mins followed by substrate addition by Lineweaver-Burk double reciprocal kinetic plot analysis
[9] = target: T1, Acetylcholinesterase; remark: listed apart in the source
Description: Competitive inhibition of human serum AChE using acetylthiocholine iodide as substrate preincubated for 10 mins followed by Lineweaver-Burk double reciprocal kinetic plot analysis

[10] = target: Cholinesterase (Equus caballus) (UniProt P81908); experiment: Inhibition of equine serum BChE at 20 uM using butyrylthiocholine iodide as substrate preincubated for 10 mins followed by substrate addition by Ellman's method

T1 sequence (P22303 whole entry): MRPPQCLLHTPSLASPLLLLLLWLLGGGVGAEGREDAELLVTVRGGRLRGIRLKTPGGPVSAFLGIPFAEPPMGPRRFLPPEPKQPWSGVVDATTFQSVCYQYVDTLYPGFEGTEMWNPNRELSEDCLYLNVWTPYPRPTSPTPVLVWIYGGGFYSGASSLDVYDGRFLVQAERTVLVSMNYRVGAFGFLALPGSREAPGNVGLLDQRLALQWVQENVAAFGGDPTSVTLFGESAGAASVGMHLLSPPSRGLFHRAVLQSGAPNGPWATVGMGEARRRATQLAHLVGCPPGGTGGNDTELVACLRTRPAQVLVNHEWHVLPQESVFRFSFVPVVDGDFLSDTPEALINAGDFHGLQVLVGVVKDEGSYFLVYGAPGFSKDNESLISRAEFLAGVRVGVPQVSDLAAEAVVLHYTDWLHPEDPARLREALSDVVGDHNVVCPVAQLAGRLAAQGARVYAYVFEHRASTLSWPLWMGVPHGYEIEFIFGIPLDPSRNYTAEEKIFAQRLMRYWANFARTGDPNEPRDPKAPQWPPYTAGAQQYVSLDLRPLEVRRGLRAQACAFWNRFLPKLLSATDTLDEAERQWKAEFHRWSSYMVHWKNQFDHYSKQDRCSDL
T2 sequence (P81908 whole entry): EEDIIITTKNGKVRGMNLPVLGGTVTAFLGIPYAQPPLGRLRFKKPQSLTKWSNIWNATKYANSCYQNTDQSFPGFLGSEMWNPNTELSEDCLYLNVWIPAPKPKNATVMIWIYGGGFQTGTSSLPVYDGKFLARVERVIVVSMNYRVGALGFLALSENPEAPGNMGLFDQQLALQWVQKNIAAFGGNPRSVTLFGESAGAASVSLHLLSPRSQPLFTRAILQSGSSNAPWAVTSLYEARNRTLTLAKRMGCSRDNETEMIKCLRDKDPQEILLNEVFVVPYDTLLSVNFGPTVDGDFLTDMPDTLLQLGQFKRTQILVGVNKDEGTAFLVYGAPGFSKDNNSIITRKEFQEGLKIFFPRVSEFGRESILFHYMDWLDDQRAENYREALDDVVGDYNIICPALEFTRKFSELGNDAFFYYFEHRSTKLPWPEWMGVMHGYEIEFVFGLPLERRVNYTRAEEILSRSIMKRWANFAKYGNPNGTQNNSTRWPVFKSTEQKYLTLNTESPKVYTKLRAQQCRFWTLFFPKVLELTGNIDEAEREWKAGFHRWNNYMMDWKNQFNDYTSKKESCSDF
Sequence of Cholinesterase (Equus caballus) (P81908 whole entry): as above

SMILES	IC50 [1] [µM]	inhibition [2]	IC50 [3] [µM]	IC50 [4] [µM]	inhibition at 20 µM [5] [%]	Ki [6] [µM]	alphaKi [7] [µM]	alphaKi [8] [µM]	Ki [9] [µM]	inhibition [10]
CCCCNc1c2ccccc2[n+](C)c2ccccc12	> 20	16.8%	15.7							
C[n+]1c2ccccc2c(-c2cc(C(C)(C)C)cc(C(C)(C)C)c2O)c2ccccc21	> 20	16.7%	2.74	> 20	31.2	1.46	4.75			
CN1c2ccccc2C(c2ccccc2)c2ccccc21		inactive	62.1							
CN1c2ccccc2C(N2CCOCC2)c2ccccc21	12.3		0.46	> 20	16.4	0.41	1.17	19.6	4.01	
CN1c2ccccc2C(n2cnc([N+](=O)[O-])n2)c2ccccc21	16.7		1.17	> 20	10.6					
CN1c2ccccc2C(c2ccc(F)cc2)c2ccccc21		inactive	> 20							11.1%
CN1c2ccccc2C(c2cccs2)c2ccccc21		inactive	> 20	> 20	11.1					12.3%
CN1c2ccccc2C(n2nnc3ccccc32)c2ccccc21	12.4		1.08	> 20	15.3	0.49	2.13	17.9	6.43	
Cc1ccc(C2c3ccccc3N(C)c3ccccc32)cc1	> 20	5.1%	> 20							10.6%
C[n+]1c2ccccc2c(-c2cccs2)c2ccccc21	40.9		58.3	> 20	6.1					
CN1c2ccccc2C(c2ccc(N)cc2)c2ccccc21		inactive	66.5							
CN1c2ccccc2C(n2c3ccccc3c3ccccc32)c2ccccc21	> 20	5.6%	13							
COc1ccc(-c2c3ccccc3[n+](C)c3ccccc23)cc1	13.7		58.5	> 20	7.8					
CN1c2ccccc2C(n2cncn2)c2ccccc21	18.8		0.81	> 20	5.4	0.16	0.72		3.34	
C[n+]1c2ccccc2c(-c2ccc(F)cc2)c2ccccc21	32.3		> 20	> 20	5.9					8.2%
Cc1cc(-c2c3ccccc3[n+](C)c3ccccc23)cc(C)c1O	49.8		61.8							

SMILES	IC50 [1] [µM]	inhibition [2]	IC50 [3] [µM]	IC50 [4] [µM]	inhibition at 20 µM [5] [%]	Ki [6] [µM]	alphaKi [7] [µM]	alphaKi [8] [µM]	Ki [9] [µM]	inhibition [10]
C[n+]1c2ccccc2c(-c2ccc(NC(=O)C(F)(F)F)cc2)c2ccccc21	36.5		> 20	> 20	7.2					7.7%
O=[N+]([O-])c1ccc(OP(=O)(O)Oc2ccc([N+](=O)[O-])cc2)cc1		inactive								inactive
CC(=O)Nc1ccc(-c2c3ccccc3[n+](C)c3ccccc23)cc1	54.3		35.1							
CN1c2ccccc2C(c2ccc(NC(=O)C(F)(F)F)cc2)c2ccccc21		inactive	> 20							7.1%
COc1ccc(C2c3ccccc3N(C)c3ccccc32)cc1	> 20	9.3%	> 20							11.6%
CN1c2ccccc2C(c2cc(C(C)(C)C)c(O)c(C(C)(C)C)c2)c2ccccc21		inactive	> 20	> 20	23.6					10.4%
CN1c2ccccc2C(N2CCSCC2)c2ccccc21	11.8		0.84	> 20	5	0.35	1.31		3.75	
Cc1ccc(-c2c3ccccc3[n+](C)c3ccccc23)cc1	41.5		40.7	> 20	16.3					
C[n+]1c2ccccc2c(-c2ccc(N)cc2)c2ccccc21	7.62		39.1	> 20	18.6	19	55.4	8.95	2.66	
CN1c2ccccc2C(c2cc(C(C)(C)C)cc(C(C)(C)C)c2O)c2ccccc21		inactive	> 20							13.4%
C[n+]1c2ccccc2c(-c2c(O)ccc3ccccc23)c2ccccc21	> 20	7.3%	50.8	> 20	8.9					
CCN(CC)c1ccc(-c2c3ccccc3[n+](C)c3ccccc23)cc1	25.2		3.35			0.94	4.22	28	13.2	
Cc1cc(-c2c3ccccc3[n+](C)c3ccccc23)cc(C)c1C	60.1		> 20							14.2%
C[n+]1c2ccccc2c(N)c2ccccc21	39.5		4.83							
CC(=O)Nc1ccc(C2c3ccccc3N(C)c3ccccc32)cc1		inactive	> 20	> 20	7.2					10.8%
C[n+]1c2ccccc2c(-c2ccccc2)c2ccccc21	61.3		51.9	> 20	22.6					
